In patent publication US11541098B2, “Peptide composition for treating excitatory neurotoxicity related injuries” (Biocells (Beijing) Biotech Co., Ltd., priority 2017, dated 2023):
Values joined by “and” are separate entries in the source; they are usually repeats but may differ in a detail not shown here. Equal values may be shown once. Peptide text beside a SMILES is read from it.

Legend:
MCAO model rats [1] = assay: Therapeutic effect on MCAO model rats (cerebral infarction volume, TTC staining); details: rat, in vivo
Experimental: The focal cerebral ischemia-reperfusion model was prepared according to the reversible middle cerebral artery occlusion (MCAO) suture method proposed by Longa with modifications in view of the anatomical structure of the rat brain. The rats were anesthetized by intraperitoneal administration of 10% chloral hydrate at a dose of […]. After anesthetization, a cut was created at the cervical midline, and the common carotid artery (CCA), external carotid artery (ECA) and pterygopalatine artery were exposed. The head portion (0.5 cm) of a monofilament nylon fishing line (0.26 mm) was coated with paraffin and a mark was made at 20 mm. All rats were inserted through the right CCA incision, and the pterygopalatine artery was temporarily clamped to prevent mis-insertion. The length of the occlusion line was about 18-20 mm from the bifurcation of CCA depending on the animal's weight, thereby occluding middle cerebral artery on the right side. The skin was then sewed, and the tail end of the occlusion line was partially fixed to the skin. After a period of ischemia for 2 hours, the occlusion line was carefully pulled out to form a reperfusion. The procedure steps for the sham control were the same as the surgery group, except for insertion of a nylon fishing line. The body temperature was maintained at 37±0.5° C. during the ischemia period and 2 h after reperfusion.
The used animals were male adult SD rats (Vittalia) of SPF grade with body weight of 220-250 g.
No drug was administered to the normal group and the sham group.
The rats were sacrificed by decapitation after scoring. The brain tissues were quickly removed and placed in a refrigerator at −20° C. After 10 minutes, the tissues were placed in a room temperature environment. The brains were placed in a rat brain section mold. After the olfactory bulb, cerebellum and low brain stem were removed, the brains were coronally cut five times at 2 mm thickness as shown in the profile to obtain six continuous raw coronal slices. Then, the brain sections were quickly placed in a 5 ml solution containing 2% TTC, and incubated at 37° C. for 30 minutes in the dark, during which the brain sections were flipped once every 5 minutes. With the TTC staining, the normal tissue would be rose red, and the infarcted tissue would be unstained and retained white. Each group of brain sections was arranged neatly, and photographed. The photos were processed by an image analysis system software and statistically analyzed. The infarction area of each brain section was calculated, and multiplied by the thickness of each brain section (2 mm). The products of the infarction area of individual brain section multiplied by the thickness were summed to obtain the cerebral infarction volume for each animal. The volumes were expressed as percentages accounting for the cerebral hemisphere to eliminate the effects of cerebral edema.

MCAO model rats [2] = assay: HE staining for histological changes of rat brain after ischemia; type: in vivo; details: 10 mg/kg, 24 h after ischemia
Experimental: The rats in each group were decapitated at 24 h after ischemia, and the resultant brain was coronally sectioned near the optic chiasm with a thickness of about 4 mm. The sections were fixed with 10% formalin solution and dehydrated with alcohol with a concentration gradient from 70% to 100%. The sections were permeabilized twice in xylene, and embedded in paraffin. The paraffin block was carefully trimmed, and immobilized on a paraffin slicing machine, and sliced to sections with a thickness of 4 μm. The paraffin sections were completely unfolded, attached to a clean and dry glass slide, and stored in a refrigerator at 4° C. Conventional HE staining was performed, and the staining results were observed by light microscopy.

rats = assay: Acute toxicity test on rats; type: in vivo, rat; details: dose of 200 mg/kg body weight
Experimental: Acute toxicity tests were performed on rats.

| SMILES | Mean of infarction volume percentage (%) (MCAO model rats [1]) | Mean of infarction volume percentage (%) (MCAO model rats [1]; 1 mg/kg) | Reduction of infarction volume percentage vs model group (MCAO model rats [1]; 1 mg/kg) [%] | Mean of infarction volume percentage (%) (MCAO model rats [1]; 3 mg/kg) | Reduction of infarction volume percentage vs model group (MCAO model rats [1]; 3 mg/kg) [%] | Mean of infarction volume percentage (%) (MCAO model rats [1]; 10 mg/kg) | pathological changes of brain tissue (HE staining) (MCAO model rats [2]; prophylactic administration) | pathological changes of brain tissue (HE staining) (MCAO model rats [2]; therapeutic administration) | acute toxicity (rats) |
| --- | --- | --- | --- | --- | --- | --- | --- | --- | --- |
| CC[C@H](C)[C@H](NC(=O)[C@H](CO)NC(=O)[C@H](CO)NC(=O)[C@H](CC(C)C)NC(=O)[C@H](CCCCN)NC(=O)[C@H](CCCNC(=N)N)NC(=O)[C@H](CCCNC(=N)N)NC(=O)[C@H](CCCNC(=N)N)NC(=O)[C@H](CCC(N)=O)NC(=O)[C@H](CCCNC(=N)N)NC(=O)[C@H](CCCNC(=N)N)NC(=O)[C@H](CCCCN)NC(=O)[C@H](CCCCN)NC(=O)[C@H](CCCNC(=N)N)NC(=O)CNC(=O)[C@@H](N)Cc1ccc(O)cc1)C(=O)N[C@@H](CCC(=O)O)C(=O)N[C@@H](CO)C(=O)N[C@@H](CC(=O)O)C(=O)N[C@H](C(=O)O)C(C)C [NA-1, reference compound] (H-YGRKKRRQRRRKLSSIESDV-OH) | 38.56% | – | – | – | – | – | – | – | – |
| CC[C@H](C)[C@H](NC(=O)[C@H](CCC(=O)O)NC(=O)[C@@H](NC(=O)[C@H](CC(=O)O)NC(=O)[C@H](CC(C)C)NC(=O)[C@H](CC(C)C)NC(=O)[C@H](CCCCN)NC(=O)[C@H](CCC(=O)O)NC(=O)[C@H](Cc1ccc(O)cc1)NC(=O)[C@H](CCCNC(=N)N)NC(=O)[C@H](CCCNC(=N)N)NC(=O)[C@H](CCCNC(=N)N)NC(=O)[C@H](CCC(N)=O)NC(=O)[C@H](CCCNC(=N)N)NC(=O)[C@H](CCCNC(=N)N)NC(=O)[C@H](CCCCN)NC(=O)[C@H](CCCCN)NC(=O)[C@H](CCCNC(=N)N)NC(=O)CNC(=O)[C@@H](N)Cc1ccc(O)cc1)[C@@H](C)O)C(=O)O [P5] | 24.84% and 36.54% and 43.22% | 44.23 | 3.76 | 35.66 | 22.41 | 19.54 | significantly improved | significantly improved | no lethal effect and other obvious toxic side effects |
| CC[C@H](C)[C@H](NC(=O)[C@H](CO)NC(=O)[C@H](CO)NC(=O)[C@H](CC(C)C)NC(=O)[C@H](CCCCN)NC(=O)[C@H](CCC(=O)O)NC(=O)[C@H](Cc1ccc(O)cc1)NC(=O)[C@H](CCCNC(=N)N)NC(=O)[C@H](CCCNC(=N)N)NC(=O)[C@H](CCCNC(=N)N)NC(=O)[C@H](CCC(N)=O)NC(=O)[C@H](CCCNC(=N)N)NC(=O)[C@H](CCCNC(=N)N)NC(=O)[C@H](CCCCN)NC(=O)[C@H](CCCCN)NC(=O)[C@H](CCCNC(=N)N)NC(=O)CNC(=O)[C@@H](N)Cc1ccc(O)cc1)C(=O)N[C@@H](CCC(=O)O)C(=O)N[C@@H](CO)C(=O)N[C@@H](CC(=O)O)C(=O)N[C@H](C(=O)O)C(C)C [YE-NA-1] (H-YGRKKRRQRRRYEKLSSIESDV-OH) | 33.96% | – | – | – | – | – | – | – | – |
